In brackets after ≈: the same amount, converted by molar mass.

The test system of one assay is HIV-1 (RF). The assay is described as follows: HIV RNA assay, microplate based compound evaluation in HIV-1 infected MT-2 cells. Format: cell-based. As to conditions: Human immunodeficiency virus 1, MT2, 72 h; HIV-1 (RF) infected MT-2 cells, 3 days of culture; virus dilutions selected to result in this value (standardization of inoculum); read-out: IC90 (concentration of compound required to reduce the HIV RNA level by 90%).

The target of a further assay is HIV protease (Human immunodeficiency virus type 1 group M subtype B, UniProt P04585). Put plainly: HIV protease inhibition (test only mentioned). Type of assay: biochemical. The following applies: stated in words only, no value given.

With `Nc1ccn([C@H]2CC[C@@H](CO)O2)c(=O)n1` [ddC, dideoxycytidine], in the assay with HIV-1 (RF), the IC90 was 0.2 µg/mL (≈ 0.947 µM).
For the molecule `CC(C)CN(C[C@@H](O)[C@H](Cc1ccccc1)NC(=O)[C@@H](NC(=O)CNCc1cccc(F)c1)C(C)(C)C)S(=O)(=O)c1ccc(N)cc1` [Compound A], the “HIV protease inhibitory activity” value at HIV protease is “potent HIV protease inhibitor”.

(Values after patent US20020022742A1, “Salt forms of an HIV protease inhibitor” (priority 2000, published 2002).)
